Measured values reported in PMC11396129, “Oxindole–benzothiazole hybrids as CDK2 inhibitors and anticancer agents: design, synthesis and biological evaluation” (BMC Chemistry, 2024).

How the values were obtained:
A549/ATCC = assay: NCI 60 panel growth inhibition (SRB), non-small cell lung cancer; format: cell-based, human; settings: 10 μM
Protocol: (§1) Screening of cytotoxic activity against a panel of sixty human tumor cell lines The selected compounds by NCI were evaluated for their anticancer activity in a two- stage process. […] Then, the output from the single dose screen is reported as a mean graph. […] Assay protocol. […] For a typical screening experiment, cells are inoculated into 96 well microtiter plates in 100 µL at plating densities ranging from 5000 to 40,000 cells/well depending on the doubling time of individual cell lines. […] After 24 h, two plates of each cell line are fixed in situ with TCA, to represent a measurement of the cell population for each cell line at the time of drug addition (Tz). The experimental drugs are solubilized in dimethyl sulfoxide at 400-fold the desired final maximum test concentration and stored frozen prior to use. At the time of drug addition, an aliquot of frozen concentrate is thawed and diluted to twice the desired final maximum test concentration with complete medium containing 50 µg/mL gentamicin. Additional four, 10-fold or ½ log serial dilutions are made to provide a total of five drug concentrations plus control. […] For adherent cells, the assay is terminated by the addition of cold TCA. […] The supernatant is discarded, and the plates are washed five times with tap water and air dried. […] Using the seven absorbance measurements [time zero, (Tz), control growth, (C), and test growth in the presence of drug at the five concentration levels (Ti)], the percentage growth is calculated at each of the drug concentrations levels. Percentage growth inhibition is calculated as: [(Ti Tz)/(C–Tz)] x 100 for concentrations for which Ti>/=Tz and [(Ti-Tz)/Tz] x 100 for concentrations for which Ti < Tz. Three dose response parameters are calculated for each experimental agent. […] The drug concentration resulting in total growth inhibition (TGI) is calculated from Ti = Tz. […] Values are calculated for each of these three parameters if the level of activity is reached; however, if the effect is not reached or is exceeded, the value for that parameter is expressed as greater or less than the maximum or minimum concentration tested.

EKVX = assay: as above; format: cell-based, human; settings: 10 μM
Protocol: as §1

HOP-92 = assay: as above; format: cell-based, human; settings: HOP-92, 10 μM
Protocol: as §1

NCI-H226 = assay: as above; format: cell-based, human; settings: NCI-H226, 10 μM
Protocol: as §1

NCI-H23 = assay: as above; format: cell-based, human; settings: NCI-H23, 10 μM
Protocol: as §1

NCI-H322M = assay: as above; format: cell-based, human; settings: 10 μM
Protocol: as §1

NCI-H460 = assay: as above; format: cell-based, human; settings: NCI-H460, 10 μM
Protocol: as §1

NCI-H522 = assay: as above; format: cell-based, human; settings: NCI-H522, 10 μM
Protocol: as §1

HCC-2998 = assay: NCI 60 panel growth inhibition (SRB), colon cancer; format: cell-based, human; settings: HCC-2998, 10 μM
Protocol: as §1

HCT-116 = assay: NCI 60 panel growth inhibition (SRB), colon cancer; format: cell-based, human; settings: HCT-116, 10 μM
Protocol: as §1

HCT-15 = assay: NCI 60 panel growth inhibition (SRB), colon cancer; format: cell-based, human; settings: HCT-15, 10 μM
Protocol: as §1

HT29 = assay: NCI 60 panel growth inhibition (SRB), colon cancer; format: cell-based, human; settings: HT29, 10 μM
Protocol: as §1

KM12 = assay: NCI 60 panel growth inhibition (SRB), colon cancer; format: cell-based, human; settings: KM12, 10 μM
Protocol: as §1

SW-620 = assay: NCI 60 panel growth inhibition (SRB), colon cancer; format: cell-based, human; settings: SW-620, 10 μM
Protocol: as §1

SF-268 = assay: NCI 60 panel growth inhibition (SRB), CNS cancer; format: cell-based, human; settings: SF-268, 10 μM
Protocol: as §1

SF-295 = assay: NCI 60 panel growth inhibition (SRB), CNS cancer; format: cell-based, human; settings: SF-295, 10 μM
Protocol: as §1

SF-539 = assay: NCI 60 panel growth inhibition (SRB), CNS cancer; format: cell-based, human; settings: SF-539, 10 μM
Protocol: as §1

SNB-19 = assay: NCI 60 panel growth inhibition (SRB), CNS cancer; format: cell-based, human; settings: SNB-19, 10 μM
Protocol: as §1

SNB-75 = assay: NCI 60 panel growth inhibition (SRB), CNS cancer; format: cell-based, human; settings: SNB-75, 10 μM
Protocol: as §1

U251 = assay: NCI 60 panel growth inhibition (SRB), CNS cancer; format: cell-based, human; settings: U251, 10 μM
Protocol: as §1

MALME-3M = assay: NCI 60 panel growth inhibition (SRB), melanoma; format: cell-based, human; settings: 10 μM
Outline: (§2)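 Compound stocks in DMSO (400× final top concentration) are diluted to 2× in gentamicin-containing medium, then serially to five levels. Cells, seeded 5000–40,000/well, receive drug 24 h after plating; adherent lines end with cold TCA fixation.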

MDA-MB-435 = assay: NCI 60 panel growth inhibition (SRB), melanoma; format: cell-based, human; settings: MDA-MB-435, 10 μM
Outline: as §2

SK-MEL-2 = assay: NCI 60 panel growth inhibition (SRB), melanoma; format: cell-based, human; settings: SK-MEL-2, 10 μM
Outline: as §2

[1] = tested on: NCI 60 cancer cell line panel; assay: NCI 60 panel growth inhibition (SRB), whole panel; format: cell-based, human; settings: mean over NCI 60 panel, 10 μM
Protocol: as §1

HOP-62 = assay: NCI 60 panel growth inhibition (SRB), non-small cell lung cancer; format: cell-based, human; settings: HOP-62, 10 μM
Protocol: as §1

COLO 205 = assay: NCI 60 panel growth inhibition (SRB), colon cancer; format: cell-based, human; settings: COLO 205, 10 μM
Protocol: as §1

Row | SMILES | GI% (A549/ATCC) [%] | GI% (EKVX) [%] | GI% (HOP-92) | GI% (NCI-H226) [%] | GI% (NCI-H23) [%] | GI% (NCI-H322M) | GI% (NCI-H460) | GI% (NCI-H522) | GI% (HCC-2998) | GI% (HCT-116) [%] | GI% (HCT-15) | GI% (KM12) | GI% (SW-620) | GI% (SF-268) [%] | GI% (SF-295) [%] | GI% (SF-539) [%] | GI% (SNB-19) [%] | GI% (SNB-75) | GI% (U251) | GI% (MALME-3M) [%] | also measured
1 | COc1ccc(-c2nc3ccccc3s2)cc1OCC(=O)NN=C1C(=O)Nc2ccc(Cl)cc21 [Compound 9q, 2-(5-(Benzo[d]thiazol-2-yl)-2-methoxyphenoxy)-N′-(5-chloro-2-oxoindolin-3-ylidene)acetohydrazide] | 20.18 | 25.37 | 52.70% | 24.77 | 42.70 | – (GI% < 5%) | 44.39% | 21.77% | – (GI% < 5%) | 72.84 | 36.40% | 17.57% | 51.82% | 27.89 | 23.77 | 34.10 | 63.00 | 15.62% | 63.50% | 26.21 | GI% (HT29): 6.74%; GI% (MDA-MB-435): 37.37%; GI% (SK-MEL-2): 56.54%; Mean GI% [1]: 31.16%; melting point: 260 to 262 °C
2 | COc1ccc(-c2nc3ccccc3s2)cc1OCC(=O)NN=C1C(=O)Nc2ccc([N+](=O)[O-])cc21 [Compound 9p, 2-(5-(Benzo[d]thiazol-2-yl)-2-methoxyphenoxy)-N′-(5-nitro-2-oxoindolin-3-ylidene)acetohydrazide] | 7.06 | 9.22 | 99.07% | 67.22 | 47.90 | 6.14% | – (GI% < 5%) | 42.45% | – (GI% < 5%) | 47.25 | – (GI% < 5%) | – (GI% < 5%) | – (GI% < 5%) | 53.94 | 89.39 | 65.68 | 86.59 | 120.44% | 78.07% | 8.36 | GI% (HT29): – (GI% < 5%); GI% (MDA-MB-435): – (GI% < 5%); GI% (SK-MEL-2): 115.65%; Mean GI% [1]: 30.34%; melting point: 288 to 290 °C
3 | COc1ccc2c(c1)C(=NNC(=O)COc1ccccc1-c1nc3ccccc3s1)C(=O)N2 [Compound 9c, 2-(2-(Benzo[d]thiazol-2-yl)phenoxy)-N′-(5-methoxy-2-oxoindolin-3-ylidene)acetohydrazide] | 25.86 | 25.93 | – (GI% < 5%) | 23.90 | 17.94 | – (GI% < 5%) | 6.01% | – (GI% < 5%) | – (GI% < 5%) | 18.17 | 40.05% | 15.67% | – (GI% < 5%) | 13.85 | 20.67 | 5.44 | 7.69 | – (GI% < 5%) | – (GI% < 5%) | 13.58 | GI% (HOP-62): – (GI% < 5%); GI% (COLO 205): – (GI% < 5%); GI% (MDA-MB-435): 19.69%; Mean GI% [1]: 12.24%; melting point: 240 to 242 °C
4 | CNC(=O)c1nn(C)c2c1C(C)(C)Cc1cnc(Nc3ccc(N4CCN(C)CC4)cc3)nc1-2 [Milciclib, reference compound] | 108 | 94.3 | 96.20% | 87.70 | 97.60 | 84.90% | 92.50% | 129.40% | 89.6% | 99.8 | 96.9% | 99.4% | 88.5% | 92.00 | 84.70 | 128.60 | 87.7 | 120.6% | 91.50% | 108.70 | GI% (HOP-62): 109.50%; GI% (COLO 205): 180.1%; GI% (HT29): 116.2%; GI% (MDA-MB-435): 78.9%; Mean GI% [1]: > 100%; Mean GI% ([1]; listed as milciclib): more than 100%
